Laboratory results as given in PubChem BioAssay (NCI).
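These data come from cells grown in 96-well plates and exposed to compound for 48 hours at five concentrations. The concentration for 50% growth inhibition is given as GI50. Definition used: TGI = concentration required for complete inhibition of growth.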

Assays:
Test in all cases: inhibition of tumour cell growth, NCI panel, 48 h; in the data active = GI50 below about 0.43 µM; inactive = the rest
NCI-H522 lung = system: NCI-H522 lung
SNB-75 CNS = system: SNB-75 CNS
NCI-H23 lung = system: NCI-H23 lung
RPMI-8226 leukemia = system: RPMI-8226 leukemia
CCRF-CEM leukemia = system: CCRF-CEM leukemia
NCI/ADR-RES ovarian = system: NCI/ADR-RES ovarian
M14 melanoma = system: M14 melanoma
SF-539 CNS = system: SF-539 CNS
HOP-62 NSCLC = system: HOP-62 NSCLC
EKVX NSCLC = system: EKVX NSCLC
ACHN renal = system: ACHN renal
HL-60(TB) leukemia = system: HL-60(TB) leukemia
SK-MEL-28 melanoma = system: SK-MEL-28 melanoma
T-47D breast = system: T-47D breast
BT-549 breast = system: BT-549 breast
OVCAR-4 ovarian = system: OVCAR-4 ovarian
RXF 393 renal = system: RXF 393 renal
HCT-116 colon = system: HCT-116 colon
TK-10 renal = system: TK-10 renal
NCI-H460 lung = system: NCI-H460 lung
MDA-MB-435 = system: MDA-MB-435
DU-145 prostate = system: DU-145 prostate
COLO 205 colon = system: COLO 205 colon
MDA-MB-231 breast = system: MDA-MB-231 breast
786-0 renal = system: 786-0 renal
CAKI-1 renal = system: CAKI-1 renal
K-562 leukemia = system: K-562 leukemia
UO-31 renal = system: UO-31 renal
OVCAR-8 ovarian = system: OVCAR-8 ovarian
HCT-15 colon = system: HCT-15 colon
UACC-257 melanoma = system: UACC-257 melanoma
A498 renal = system: A498 renal
SK-MEL-2 melanoma = system: SK-MEL-2 melanoma
OVCAR-3 ovarian = system: OVCAR-3 ovarian
PC-3 prostate = system: PC-3 prostate
LOX IMVI melanoma = system: LOX IMVI melanoma
IGROV1 ovarian = system: IGROV1 ovarian
SN12C renal = system: SN12C renal
MCF7 breast = system: MCF7 breast
UACC-62 melanoma = system: UACC-62 melanoma
HOP-92 NSCLC = system: HOP-92 NSCLC
KM12 colon = system: KM12 colon
SR leukemia = system: SR leukemia
A549 NSCLC = system: A549 NSCLC
U251 CNS = system: U251 CNS
SW-620 colon = system: SW-620 colon
SF-295 CNS = system: SF-295 CNS
HT29 colon = system: HT29 colon
MOLT-4 leukemia = system: MOLT-4 leukemia
HCC-2998 colon = system: HCC-2998 colon
SNB-19 CNS = system: SNB-19 CNS
MALME-3M melanoma = system: MALME-3M melanoma
NCI-H226 lung = system: NCI-H226 lung
SK-MEL-5 melanoma = system: SK-MEL-5 melanoma
SF-268 CNS = system: SF-268 CNS
OVCAR-5 ovarian = system: OVCAR-5 ovarian
HS 578T breast = system: HS 578T breast
SK-OV-3 ovarian = system: SK-OV-3 ovarian

COc1cc(-c2nc3ccccc3s2)ccc1NC(=O)COc1ccc(Cl)cc1
59.2 µM: TGI (NCI-H226 lung)
50.4 µM: TGI (SF-268 CNS)
46.6 µM: TGI (OVCAR-8 ovarian)
25.6 µM: TGI (NCI-H23 lung)
> 100 µM: TGI (SNB-75 CNS) | TGI (RPMI-8226 leukemia) | TGI (CCRF-CEM leukemia) | TGI (M14 melanoma) | TGI (SF-539 CNS) | TGI (EKVX NSCLC) | TGI (ACHN renal) | TGI (HL-60(TB) leukemia) | TGI (T-47D breast) | TGI (BT-549 breast) | TGI (HCT-116 colon) | TGI (NCI-H460 lung) | TGI (MDA-MB-435) | TGI (DU-145 prostate) | TGI (COLO 205 colon) | TGI (MDA-MB-231 breast) | TGI (CAKI-1 renal) | TGI (K-562 leukemia) | TGI (UO-31 renal) | TGI (HCT-15 colon) | TGI (UACC-257 melanoma) | TGI (A498 renal) | TGI (OVCAR-3 ovarian) | TGI (PC-3 prostate) | TGI (LOX IMVI melanoma) | TGI (SN12C renal) | TGI (MCF7 breast) | TGI (KM12 colon) | TGI (SR leukemia) | TGI (A549 NSCLC) | TGI (SW-620 colon) | TGI (HT29 colon) | TGI (MOLT-4 leukemia) | TGI (HCC-2998 colon) | TGI (MALME-3M melanoma) | TGI (SK-MEL-5 melanoma) | TGI (OVCAR-5 ovarian) | TGI (HS 578T breast) | TGI (SK-OV-3 ovarian)
6.8 µM: TGI (U251 CNS)
13 µM: TGI (UACC-62 melanoma)
15.3 µM: TGI (SK-MEL-2 melanoma)
71.3 µM: TGI (SK-MEL-28 melanoma)
7.06 µM: TGI (TK-10 renal)
11.3 µM: TGI (RXF 393 renal)
inactive: GI50 (NCI-H522 lung) 2.71 µM | GI50 (SNB-75 CNS) 42.9 µM | GI50 (NCI-H23 lung) 3.01 µM | GI50 (RPMI-8226 leukemia) 11.8 µM | GI50 (CCRF-CEM leukemia) > 100 µM | GI50 (NCI/ADR-RES ovarian) 3.22 µM | GI50 (M14 melanoma) 8.54 µM | GI50 (SF-539 CNS) 61.6 µM | GI50 (HOP-62 NSCLC) 4.15 µM | GI50 (EKVX NSCLC) 8.67 µM | GI50 (ACHN renal) 4.92 µM | GI50 (HL-60(TB) leukemia) > 100 µM | GI50 (SK-MEL-28 melanoma) 6.33 µM | GI50 (T-47D breast) 4.42 µM | GI50 (BT-549 breast) > 100 µM | GI50 (OVCAR-4 ovarian) 3.9 µM | GI50 (RXF 393 renal) 3.25 µM | GI50 (HCT-116 colon) 4.41 µM | GI50 (TK-10 renal) 2.68 µM | GI50 (NCI-H460 lung) 2.99 µM | GI50 (MDA-MB-435) 8.16 µM | GI50 (DU-145 prostate) 8.28 µM | GI50 (COLO 205 colon) 6.45 µM | GI50 (MDA-MB-231 breast) 4.98 µM | GI50 (786-0 renal) 1.96 µM | GI50 (CAKI-1 renal) 6.95 µM | GI50 (K-562 leukemia) 5.35 µM | GI50 (UO-31 renal) 1.49 µM | GI50 (OVCAR-8 ovarian) 2.79 µM | GI50 (HCT-15 colon) > 100 µM | GI50 (UACC-257 melanoma) 13.5 µM | GI50 (A498 renal) 44.5 µM | GI50 (SK-MEL-2 melanoma) 3.52 µM | GI50 (OVCAR-3 ovarian) 6.8 µM | GI50 (PC-3 prostate) 3.51 µM | GI50 (LOX IMVI melanoma) 4.69 µM | GI50 (IGROV1 ovarian) 1.14 µM | GI50 (SN12C renal) 5.29 µM | GI50 (MCF7 breast) 5.05 µM | GI50 (UACC-62 melanoma) 2.74 µM | GI50 (HOP-92 NSCLC) 1.66 µM | GI50 (KM12 colon) 3.91 µM | GI50 (SR leukemia) 76.5 µM | GI50 (A549 NSCLC) 3.07 µM | GI50 (U251 CNS) 2.23 µM | GI50 (SW-620 colon) 53.7 µM | GI50 (SF-295 CNS) 3.35 µM | GI50 (HT29 colon) 3.66 µM | GI50 (MOLT-4 leukemia) > 100 µM | GI50 (HCC-2998 colon) 18.6 µM | GI50 (SNB-19 CNS) 3.71 µM | GI50 (MALME-3M melanoma) 5.07 µM | GI50 (NCI-H226 lung) 4.31 µM | GI50 (SK-MEL-5 melanoma) 8.68 µM | GI50 (SF-268 CNS) 3.02 µM | GI50 (OVCAR-5 ovarian) 13.4 µM | GI50 (HS 578T breast) 3.73 µM | GI50 (SK-OV-3 ovarian) 36.5 µM
21.2 µM: TGI (IGROV1 ovarian)
34.3 µM: TGI (HOP-62 NSCLC)
27.6 µM: TGI (NCI/ADR-RES ovarian)
4.99 µM: TGI (HOP-92 NSCLC)
25.1 µM: TGI (SF-295 CNS)
19.4 µM: TGI (SNB-19 CNS)
12.1 µM: TGI (NCI-H522 lung)
4 µM: TGI (786-0 renal)
93.2 µM: TGI (OVCAR-4 ovarian)
